# What was measured:
# [1] = test system: Brain; assay: Antioxidant activity in rat brain homogenate assessed as inhibition of FeCl2/ascorbic acid-induced lipid peroxidation by measuring reduction in TBARS level at 100 uM measured after 30 mins by spectrophotometric method relative to control; assay type: functional, tissue-based
# [2] = Antioxidant activity assessed as DPPH radical scavenging activity at 10 uM relative to control; assay type: functional
# [3] = target: Aldo-keto reductase family 1 member A1 (Rattus norvegicus, UniProt P51635); assay: Inhibition of Wistar rat kidney ALR1 using sodium D-glucuronate as substrate preincubated for 10 mins followed by substrate addition and measured for 4 mins by spectrophotometric method
# [4] = target: Aldo-keto reductase family 1 member B1 (Rattus norvegicus, UniProt P07943); assay: Inhibition of Wistar rat lens ALR2 using L-glyceraldehyde as substrate preincubated for 10 mins followed by substrate addition and measured for 4 mins by spectrophotometric method
# [5] = species on record: Rattus norvegicus; assay: Selectivity index, ratio of IC50 for Wistar rat kidney ALR1 to IC50 for Wistar rat lens ALR2
# [6] = Antioxidant activity assessed as DPPH radical scavenging activity at 100 uM relative to control; assay type: functional
# [7] = Octanol-buffer partition coefficient, log D of the compound at pH 7.4 measured after 24 hrs by HPLC based shake flask assay; assay type: physicochemical
# [8] = Antioxidant activity assessed as DPPH radical scavenging activity at 50 uM relative to control; assay type: functional
# [9] = target: Aldo-keto reductase family 1 member B1 (Rattus norvegicus) (UniProt P07943); assay: Inhibition of Wistar rat lens ALR2 at 10 uM using L-glyceraldehyde as substrate preincubated for 10 mins followed by substrate addition and measured for 4 mins by spectrophotometric method relative to control
# [10] = test system: Brain; assay: Antioxidant activity in rat brain homogenate assessed as inhibition of FeCl2/ascorbic acid-induced lipid peroxidation by measuring reduction in TBARS level at 50 uM measured after 30 mins by spectrophotometric method relative to control; assay type: functional, tissue-based
# [11] = Antioxidant activity assessed as DPPH radical scavenging activity at 5 uM relative to control; assay type: functional
# [12] = Antioxidant activity assessed as DPPH radical scavenging activity at 1 uM relative to control; assay type: functional
# [13] = target: Aldo-keto reductase family 1 member B1 (Rattus norvegicus) (UniProt P07943); assay: Inhibition of Wistar rat lens ALR2 at 100 uM using L-glyceraldehyde as substrate preincubated for 10 mins followed by substrate addition and measured for 4 mins by spectrophotometric method relative to control
# Sequence of Aldo-keto reductase family 1 member A1 (P51635 whole entry, looked up): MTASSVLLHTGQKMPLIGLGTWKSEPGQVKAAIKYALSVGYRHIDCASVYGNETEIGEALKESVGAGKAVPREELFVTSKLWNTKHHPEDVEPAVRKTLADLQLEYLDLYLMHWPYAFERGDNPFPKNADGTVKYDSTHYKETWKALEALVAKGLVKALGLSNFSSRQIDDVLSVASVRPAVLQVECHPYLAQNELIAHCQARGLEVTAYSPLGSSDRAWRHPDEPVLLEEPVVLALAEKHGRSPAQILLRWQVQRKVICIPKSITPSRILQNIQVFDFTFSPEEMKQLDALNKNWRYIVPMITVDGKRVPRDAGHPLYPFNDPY
compound,measurement,setting,value
O=C(Cn1c(=O)c(/C=C/c2ccc(O)cc2)nc2ccccc21)NS(=O)(=O)C(F)(F)F,inhibition,[1],38.6%
same,Activity,[2],13.2%
same,IC50,[3],27.7 µM
same,IC50,[4],0.627 µM
same,Ratio IC50,[5],44.2
same,Activity,[6],56.2%
same,logD at 24 h,[7],1.73
same,Activity,[8],38.9%
NC(=O)Cn1c(=O)c(/C=C/c2ccc(F)cc2)nc2ccccc21,inhibition,[9],26.5%
O=C(Cn1c(=O)c(Oc2ccc(O)cc2)nc2ccccc21)NS(=O)(=O)C(F)(F)F,inhibition,[1],12.3%
same,IC50,[3],73.6 µM
same,IC50,[4],10.1 µM
same,Ratio IC50,[5],7.26
same,Activity,[6],8.1%
COc1ccc(Oc2nc3ccccc3n(CC(=O)NS(=O)(=O)C(F)(F)F)c2=O)cc1,IC50,[4],55.1 µM
O=C(Cn1c(=O)c(-c2ccc(F)cc2)nc2ccccc21)NS(=O)(=O)C(F)(F)F,IC50,[4],71.9 µM
O=C(Cn1c(=O)c(/C=C/c2ccc(O)c(O)c2)nc2ccccc21)NS(=O)(=O)C(F)(F)F,inhibition,[1],73.5%
same,Activity,[2],82.1%
same,inhibition,[10],39%
same,IC50,[3],9.16 µM
same,IC50,[4],0.1 µM
same,Ratio IC50,[5],91.6
same,logD at 24 h,[7],-1.08
same,Activity,[11],51.9%
same,Activity,[12],11%
COc1cc(/C=C/c2nc3ccccc3n(CC(=O)O)c2=O)ccc1O,inhibition,[1],56.1%
same,Activity,[2],44.4%
same,Activity,[6],94%
same,logD at 24 h,[7],-2.66
same,Activity,[11],21.1%
same,Activity,[8],73.6%
CS(=O)(=O)NC(=O)Cn1c(=O)c(/C=C/c2ccccc2)nc2ccccc21,IC50,[4],35.2 µM
Cc1c(C)c2c(c(C)c1O)CCC(C)(C(=O)O)O2 (stereo not given),inhibition,[1],74.1%
same,Activity,[2],77.9%
same,inhibition,[10],36.6%
same,Activity,[6],96.5%
same,Activity,[11],39.3%
same,Activity,[12],8.2%
same,Activity,[8],94.7%
COc1cc(/C=C/c2nc3ccccc3n(CC(=O)NS(=O)(=O)C(F)(F)F)c2=O)ccc1O,inhibition,[1],61.9%
same,Activity,[2],52.2%
same,IC50,[3],23.9 µM
same,IC50,[4],3.27 µM
same,Ratio IC50,[5],7.3
same,Activity,[6],89.8%
same,logD at 24 h,[7],1.05
same,Activity,[11],27.7%
same,Activity,[8],81.9%
CS(=O)(=O)NC(=O)Cn1c(=O)c(Oc2ccccc2)nc2ccccc21,inhibition,[13],41.7%
O=C(Cn1c(=O)c(Oc2ccc(Cl)cc2)nc2ccccc21)NS(=O)(=O)C(F)(F)F,IC50,[4],40.6 µM
O=C(Cn1c(=O)c(-c2ccc(O)c(O)c2)nc2ccccc21)NS(=O)(=O)C(F)(F)F,inhibition,[1],58.7%
same,Activity,[2],81.4%
same,IC50,[3],57.9 µM
same,IC50,[4],4.64 µM
same,Ratio IC50,[5],12.5
same,Activity,[6],92.3%
same,Activity,[11],46%
same,Activity,[12],6.8%
same,Activity,[8],89.6%
O=C(Cn1c(=O)c(-c2ccccc2)nc2ccccc21)NS(=O)(=O)C(F)(F)F,IC50,[4],75.2 µM
NC(=O)Cn1c(=O)c(/C=C/c2ccccc2)nc2ccccc21,inhibition,[9],24.6%
O=C(Cn1c(=O)c(/C=C/c2ccccc2)nc2ccccc21)NS(=O)(=O)C(F)(F)F,inhibition,[1],20.6%
same,Activity,[2],6.4%
same,IC50,[3],29.9 µM
same,IC50,[4],6.38 µM
same,Ratio IC50,[5],4.68
same,Activity,[6],58.5%
same,logD at 24 h,[7],2.88
same,Activity,[8],35.1%
COc1ccc(/C=C/c2nc3ccccc3n(CC(=O)NS(=O)(=O)C(F)(F)F)c2=O)cc1OC,IC50,[3],42.5 µM
same,IC50,[4],15.9 µM
same,Ratio IC50,[5],2.67
O=C(Cn1c(=O)c(Oc2ccccc2)nc2ccccc21)NS(=O)(=O)C(F)(F)F,IC50,[4],54 µM
O=C(O)Cn1c(=O)c(/C=C/c2ccccc2)nc2ccccc21,logD at 24 h,[7],0.05
O=C(Cn1c(=O)c(-c2ccc(C(F)(F)F)cc2)nc2ccccc21)NS(=O)(=O)C(F)(F)F,IC50,[4],34 µM
CS(=O)(=O)NC(=O)Cn1c(=O)c(-c2ccccc2)nc2ccccc21,inhibition,[13],35.9%
O=C(Cn1c(=O)c(-c2ccc(O)cc2)nc2ccccc21)NS(=O)(=O)C(F)(F)F,IC50,[4],23.6 µM
O=C(Cn1c(=O)c(/C=C/c2ccc(F)cc2)nc2ccccc21)NS(=O)(=O)C(F)(F)F,IC50,[3],29.2 µM
same,IC50,[4],14.3 µM
same,Ratio IC50,[5],2.05
O=C(Cn1c(=O)c(Oc2ccc(F)cc2)nc2ccccc21)NS(=O)(=O)C(F)(F)F,IC50,[4],38.1 µM
O=C(O)Cn1c(=O)c(/C=C/c2ccc(O)c(O)c2)nc2ccccc21,inhibition,[1],59.5%
same,Activity,[2],46%
same,Activity,[6],95.4%
same,logD at 24 h,[7],-2.59
same,Activity,[11],21.8%
same,Activity,[8],89.2%
O=C(Cn1c(=O)c(Oc2ccc(Br)cc2)nc2ccccc21)NS(=O)(=O)C(F)(F)F,IC50,[4],74.7 µM
COc1ccc(-c2nc3ccccc3n(CC(=O)NS(=O)(=O)C(F)(F)F)c2=O)cc1OC,IC50,[4],38.7 µM
O=C(O)Cn1c(=O)c(/C=C/c2ccc(O)cc2)nc2ccccc21,logD at 24 h,[7],-1.63

# Source: ChEMBL document CHEMBL4400570, “Designing of acyl sulphonamide based quinoxalinones as multifunctional aldose reductase inhibitors” (Bioorg Med Chem, 2019)
